Measurements taken from PubChem BioAssay AID1919003 (Molecular Pharmacology Branch, DTP, NCI, 2023).
pIC50: −log10 of the molar value.

Tested on: 786-0 complex spheroids with HUVEC/MSC, growth % test/control
Experiment: Anticancer human tumor 786-0 cell line growth inhibition [AhR];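 further: compound exposure lasted seven days before the read-out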
Conditions: for pIC50: curve of first compound; for viability, T/C: stronger effect = lower value
Description: Multicellular complex tumor spheroid response to aryl hydrocarbon receptor antagonists in combination with a variety of drugs and investigational agents in selected tumor cell lines
The current study was undertaken to assess response to aryl hydrocarbon receptor antagonists in combination with standard-of-care drugs and investigational agents in solid tumor complex spheroid models. Complex spheroids include a stromal component modeled by human endothelial cells (HUVEC) and fibroblasts modeled by human mesenchymal stem cells (MSCs). The concentration ranges selected for each drug and investigational agent were based upon clinically achievable concentrations if the clinical Cmax of the agent was known.
Compounds. The drugs and investigational agents: BAY 2416964 (NSC825713), GNF351 (NSC835774), CH-223191 (NSC835775), CPI-455 (NSC825282), aza-TdCyd (NSC777586), decitabine (NSC127716), belinostat (NSC758774), entinostat (NSC756642), pevonedistat (NSC761192), tazemetostat (NSC777109), talazoparib (NSC765396), olaparib (NSC753686), selinexor (NSC780203), nedisertib (M3814, NSC802822), bortezomib (NSC756655), venetoclax (NSC766270), doxorubicin (NSC123127), elimusertib (BAY189344, NSC800525), ceralasertib (AZD6738, NSC777638), TAK-243 (NSC785004), alisertib (NSC759677), etoposide (NSC141540), topotecan (NSC609699), eribulin (NSC707389), gemcitabine (NSC613327), carboplatin (NSC241240), cisplatin (NSC119875), and SN-38 (NSC673596) were obtained from the National Cancer Institute (NCI) Developmental Therapeutics Program Chemical Repository (32). The FDA-approved anticancer drug set is available from the Developmental Therapeutics Program at https://dtp.cancer.gov/organization/dscb/obtaining/available plates.htm. […] The stock solutions were prepared in dimethyl sulfoxide (DMSO, Sigma-Aldrich, St. Louis, MO, cat. D2650), except for the platinum compounds which were prepared in saline (Quality Biological, Gaithersburg, MD, cat. 114-055-101), at 800-fold the tested concentration and stored at -70 degrees C prior to their use. All drugs and investigational agents were tested over a range starting from a high concentration at or near the clinical Cmax and decreasing in half-log increments. If the clinical Cmax for an agent had not been determined, the highest concentration tested was 10 microM (Table 1).
Cell Culture. All cells were maintained in an incubator at 37 degrees C and 5% CO2 with 95% humidity. The PDC lines were cultured according to standard operating procedures established by the NCI PDMR (https://pdmr.cancer.gov). Briefly, all PDCs were thawed and cultured in Matrigel-coated flasks prepared with a working solution of 1X Ham's F-12 nutrient mix, without supplementation (Invitrogen, Waltham, MA, cat. 11765054), 100 U/mL penicillin-streptomycin (Invitrogen, cat. 15140122), and 2.5% Matrigel (Corning Inc., Corning, NY, cat. 354248) for the first three passages. All PDCs were cultured in complete DMEM/F-12 media containing advanced DMEM/F-12 (Invitrogen, cat. 12634028), 4.9% defined fetal bovine serum, heat inactivated (HyClone Laboratories Inc., Logan, UT, cat. SH30070.03HI), 389 ng/mL hydrocortisone (Sigma-Aldrich, cat. H4001), 9.7 ng/mL human EGF recombinant protein (Invitrogen, cat. PHG0313), 23.4 microg/mL adenine (Sigma-Aldrich, cat. A2786), 97.3 U/mL penicillin-streptomycin (Invitrogen, cat. 15140122), 1.9 mM L-glutamine (Invitrogen, cat. 25030081), and 9.7 microM Y-27632 dihydrochloride (Tocris Bioscience, Bristol, United Kingdom, cat. 1254). The PDCs were cultured in complete DMEM/F12 media without 10 microM Y-27632 dihydrochloride for at least two passages prior to the screen. The established cell lines NCI-H1341 and […] were cultured in DMEM/F-12, HEPES (Invitrogen, cat. 11330032), 5% defined fetal bovine serum (HyClone Laboratories Inc., cat. SH30070.03), ITS premix universal culture supplement [insulin (5 microg/mL), transferrin (5 microg/mL), and selenious acid (5 ng/mL)] […]

[1] = second compound 0.1 µM, first compound 0.0316 µM
[2] = second compound 0.1 µM, first compound 0.1 µM
[3] = second compound 0.1 µM, first compound 0.316 µM
[4] = second compound 0.1 µM, first compound 1 µM
[5] = second compound 0.1 µM, first compound 3.16 µM
[6] = second compound 0.1 µM, first compound 10 µM
[7] = second compound 0.316 µM, first compound 0.0316 µM
[8] = second compound 0.316 µM, first compound 0.1 µM
[9] = second compound 0.316 µM, first compound 0.316 µM
[10] = second compound 0.316 µM, first compound 1 µM
[11] = second compound 0.316 µM, first compound 3.16 µM
[12] = second compound 0.316 µM, first compound 10 µM
[13] = second compound 1 µM, first compound 0.0316 µM
[14] = second compound 1 µM, first compound 0.1 µM
[15] = second compound 1 µM, first compound 0.316 µM
[16] = second compound 1 µM, first compound 1 µM
[17] = second compound 1 µM, first compound 3.16 µM
[18] = second compound 1 µM, first compound 10 µM
[19] = second compound 3.16 µM, first compound 0.0316 µM
[20] = second compound 3.16 µM, first compound 0.1 µM
[21] = second compound 3.16 µM, first compound 0.316 µM
[22] = second compound 3.16 µM, first compound 1 µM
[23] = second compound 3.16 µM, first compound 3.16 µM
[24] = second compound 3.16 µM, first compound 10 µM
[25] = second compound 10 µM, first compound 0.0316 µM
[26] = second compound 10 µM, first compound 0.1 µM
[27] = second compound 10 µM, first compound 0.316 µM
[28] = second compound 10 µM, first compound 1 µM
[29] = second compound 10 µM, first compound 3.16 µM
[30] = second compound 10 µM, first compound 10 µM

`CC1(C)CCC(CN2CCN(c3ccc(C(=O)NS(=O)(=O)c4ccc(NCC5CCOCC5)c([N+](=O)[O-])c4)c(Oc4cnc5[nH]ccc5c4)c3)CC2)=C(c2ccc(Cl)cc2)C1` + CC(CO)NC(=O)c1cc(-c2ccc(Cl)cc2)nn(-c2cnn(C)c2)c1=O was tested, and the pIC50 (second compound 0.1 µM) was under 5.00, the pIC50 (second compound 0.316 µM) was under 5.00 and the pIC50 (second compound 1 µM) was under 5.00. It also gave a pIC50 (second compound 3.16 µM) of under 5.00, a pIC50 (second compound 10 µM) of under 5.00 and a viability, T/C [1] of 109%. It also gave a viability, T/C [2] of 101%, a viability, T/C [3] of 106% and a viability, T/C [4] of 99.9%. It also gave a viability, T/C [5] of 90.7%, a viability, T/C [6] of 77.7% and a viability, T/C [7] of 105%. It also gave a viability, T/C [8] of 115%, a viability, T/C [9] of 101% and a viability, T/C [10] of 98.4%. The viability, T/C [11] was 91.3%, the viability, T/C [12] was 81.3% and the viability, T/C [13] was 105%. It also gave a viability, T/C [14] of 103%, a viability, T/C [15] of 106% and a viability, T/C [16] of 97.9%. For the same compound, the viability, T/C [17] was 104%, the viability, T/C [18] was 80.8% and the viability, T/C [19] was 116%. It also gave a viability, T/C [20] of 111%, a viability, T/C [21] of 104% and a viability, T/C [22] of 96.4%. For the same compound, the viability, T/C [23] was 82.9%, the viability, T/C [24] was 82.5% and the viability, T/C [25] was 114%. The viability, T/C [26] was 135%, the viability, T/C [27] was 109% and the viability, T/C [28] was 122%. It also gave a viability, T/C [29] of 98.4% and a viability, T/C [30] of 86.4%.
`COc1cc(Nc2ncc3c(n2)-c2ccc(Cl)cc2C(c2c(F)cccc2OC)=NC3)ccc1C(=O)O` + CC(CO)NC(=O)c1cc(-c2ccc(Cl)cc2)nn(-c2cnn(C)c2)c1=O was tested, and the pIC50 (second compound 0.1 µM) was 5.55, the pIC50 (second compound 0.316 µM) was 5.59 and the pIC50 (second compound 1 µM) was 5.59. It also gave a pIC50 (second compound 3.16 µM) of 5.60, a pIC50 (second compound 10 µM) of 5.55 and a viability, T/C [1] of 101%. For the same compound, the viability, T/C [2] was 96.8%, the viability, T/C [3] was 99.9% and the viability, T/C [4] was 82%. The viability, T/C [5] was 46.4%, the viability, T/C [6] was 23.9% and the viability, T/C [7] was 106%. The viability, T/C [8] was 100%, the viability, T/C [9] was 107% and the viability, T/C [10] was 84.7%. For the same compound, the viability, T/C [11] was 43.2%, the viability, T/C [12] was 19.8% and the viability, T/C [13] was 96.8%. For the same compound, the viability, T/C [14] was 103%, the viability, T/C [15] was 108% and the viability, T/C [16] was 80.2%. For the same compound, the viability, T/C [17] was 44%, the viability, T/C [18] was 20.3% and the viability, T/C [19] was 107%. The viability, T/C [20] was 93.2%, the viability, T/C [21] was 104% and the viability, T/C [22] was 87.9%. It also gave a viability, T/C [23] of 41.1%, a viability, T/C [24] of 19.9% and a viability, T/C [25] of 92.3%. For the same compound, the viability, T/C [26] was 86.7%, the viability, T/C [27] was 101% and the viability, T/C [28] was 85%. It also gave a viability, T/C [29] of 46.2% and a viability, T/C [30] of 19.5%.
